{"source": "patent US6506339B1", "about": "“Method of sterilization” (Biomedical Design, Inc., priority 1997, dated 2003)", "key": {"[1]": {"test_system": "Chaetonium globosom ATCC 6205 spores", "test": "Sterilization in cups at about 38° C. (Example 6)", "type": "cell-based, Chaetonium globosum", "conditions": "25 mM EDC, 20% isopropanol, inoculum Log 10 ˜4.7", "experimental": "(§1) In view of the foregoing verification, it was decided to test the effectiveness of the sterilization process against other bacteria using sterile cups. Added to each of the cups is 20 ml of 10 mM HEPES, 0.85%, Nacl, 20% isopropanol, pH 6.5, containing 25 mM EDC without any coupling enhancer, before the cups are placed in a incubator at about 38° C. When the solution temperature reached about 38° C., approximately 10^5-10^6 organisms were inoculated into the solution. The tests were carried out in triplicate. The following four isolated were tested in the form of sporous suspensions: Clostridium sporogenes ATCC 3584, Bacillus pumilus ATCC 27142, Chaetonium globosom ATCC 6205, and Microacus cinereus ATCC 16594. The following three isolates were tested as vegetative cells: Mycobacterium chelonae ATCC 35752, Methylbacterium extorquens ATCC 43645 and Trichosporon aquatile ATCC 22310. The inoculated systems were allowed to incubate for 1 hour, for 5 hours or for 24 hours, and the solutions were then filtered through a 0.45 micron filter. After rinsing, the filter was placed on a TSA plate as described in Example 1. Negative and positive controls indicate that the tests were valid. The results are set forth in Table D which follows wherein the number of CFUs in the inoculum is expressed as its log to the base 10, e.g. 3.4×10^5=5.5: […]"}, "[2]": {"test_system": "Bacillus subtilis ATCC 9372 spores", "test": "Sterilization test with or without coupling enhancer (Example 3)", "type": "cell-based", "conditions": "20 mM EDC, 20% isopropyl alcohol, 72 hours, about 40° C.", "experimental": "In the experiments described above, a coupling enhancer (Sulfo-NHS) was added to EDC during the sterilization process. The following experiment was designed to test the efficacy of EDC in the presence or absence of an enhancer. A sterilization test process was carried out employing about 5.7 to 6.6×10^5 Bacillus subtilis ATCC 9372 spores, inoculating them in sterile cups for 10 minutes. A solution of 10 mM HEPES, 0.85% NaCl, 20% isopropyl alcohol, pH 6.5 was then added to each of the cups, which solution contained 20 mM EDC and either 1 mM Sulfo-NHS or 1 mM NHS or no enhancer. Incubation was carried out for 72 hours (treatment duration) with the cups at about 40° C., and the solutions from the cups were then filtered. The filters were rinsed with a 0.1% peptone water solution to eliminate any residual EDC and/or enhancer and were then incubated on Trypticase Soy Agar (TSA) plates."}, "[3]": {"test_system": "Methylbacterium extorquens ATCC 43645 vegetative cells", "test": "Sterilization in cups at about 38° C. (Example 6)", "type": "cell-based, Methylobacterium extorquens", "conditions": "25 mM EDC, 20% isopropanol, inoculum Log 10 6.94", "experimental": "as §1"}, "[4]": {"test_system": "Bacillus subtilis (niger) spores", "test": "D values of EDC without isopropyl alcohol, 40° C. (Example 4A)", "type": "cell-based", "conditions": "no isopropyl alcohol; for incubation duration necessary to achieve 6 log reduction: calculated from D value", "experimental": "The following experiment was carried out to assess the effectiveness of a coupling agent, such as EDC, in the absence of isopropyl alcohol or an equivalent alkanol. Bacillus subtilis (niger) spores at levels of 1.5×10^6 were inoculated in sterile cups for approximately 10 minutes. Solutions (50 ml) of 25, 37.5 and 50 mM EDC in 10 mM TRIS, 0.85% NaCl, pH 6.5, which contain no isopropyl alcohol, were prewarmed to 40° C. and then rapidly added to the cups. The cups were incubated at 40° C. for 0.5, 1, 6, 24 and 48 hours; then, the solutions were diluted and filtered in order to collect microorganisms. Next, the filters were rinsed with a 0.1% peptone water solution to eliminate any residual EDC and then incubated on TSA plates for up to 14 days. The plates were examined every day for growth, with the colony forming units (CFUs) being counted, and resulting D values were calculated. Such D values represent the duration (in minutes) of incubation to decrease the level of spores by one log, i.e. eliminating 90% of the spores population."}, "[5]": {"test_system": "Mycobacterium chelonae ATCC 35752 vegetative cells", "test": "Sterilization in cups at about 38° C. (Example 6)", "type": "cell-based", "conditions": "25 mM EDC, 20% isopropanol, 1 Hour, inoculum Log 10 5.15", "experimental": "as §1"}, "[6]": {"test_system": "Trichosporon aquatile ATCC 22310 vegetative cells", "test": "Sterilization in cups at about 38° C. (Example 6)", "type": "cell-based", "conditions": "25 mM EDC, 20% isopropanol, inoculum Log 10 4.3", "experimental": "as §1"}, "[7]": {"test_system": "Clostridium sporogenes ATCC 3584 spores", "test": "Sterilization in cups at about 38° C. (Example 6)", "type": "cell-based", "conditions": "25 mM EDC, 20% isopropanol", "experimental": "as §1"}, "[8]": {"test_system": "Bacillus pumilus ATCC 27142 spores", "test": "Sterilization in cups at about 38° C. (Example 6)", "type": "cell-based", "conditions": "25 mM EDC, 20% isopropanol", "experimental": "as §1"}}, "note": "Marks after values point to notes of the source that are not given here.", "data": [{"smiles": "CCN=C=NCCCN(C)C.Cl", "note": "[EDC, 1-ethyl-3(3-dimethylaminopropyl)carbodiimide hydrochloride]", "values": [{"measurement": "hours of incubation of plates after which no growth was observed", "setting": "[1]; 5 Hours treatment", "result": "(72 hrs.)*"}, {"measurement": "hours of incubation of plates after which no growth was observed", "setting": "[1]; 24 Hours treatment", "result": "(96 hrs.)*"}, {"measurement": "NUMBER OF COLONY FORMING UNITS (SURVIVORS)", "setting": "[2]; enhancer 1 mM NHS", "result": 0}, {"measurement": "NUMBER OF COLONY FORMING UNITS (SURVIVORS)", "setting": "[2]; enhancer 1 mM sulfo-NHS", "result": 0}, {"measurement": "NUMBER OF COLONY FORMING UNITS (SURVIVORS)", "setting": "[2]; no enhancer", "result": 0}, {"measurement": "Log REDUCTION", "setting": "[3]; 1 Hour", "result": 6.94}, {"measurement": "Log REDUCTION", "setting": "[3]; 5 Hours", "result": 6.94}, {"measurement": "D value (duration of incubation to decrease the level of spores by one log)", "setting": "[4]; 25 mM EDC", "result": 203, "unit": "minutes"}, {"measurement": "incubation duration necessary to achieve 6 log reduction", "setting": "[4]; 25 mM EDC", "result": 24, "unit": "hours"}, {"measurement": "D value (duration of incubation to decrease the level of spores by one log)", "setting": "[4]; 37.5 mM EDC", "result": 106, "unit": "minutes"}, {"measurement": "incubation duration necessary to achieve 6 log reduction", "setting": "[4]; 37.5 mM EDC", "result": 11, "unit": "hours"}, {"measurement": "D value (duration of incubation to decrease the level of spores by one log)", "setting": "[4]; 50 mM EDC", "result": 86, "unit": "minutes"}, {"measurement": "incubation duration necessary to achieve 6 log reduction", "setting": "[4]; 50 mM EDC", "result": 9, "unit": "hours"}, {"measurement": "Log REDUCTION", "setting": "[5]", "result": 5.15}, {"measurement": "Log REDUCTION", "setting": "[6]; 1 Hour", "result": 4.3}, {"measurement": "Log REDUCTION", "setting": "[6]; 5 Hours", "result": 4.3}, {"measurement": "Log REDUCTION", "setting": "[7]; 1 Hour, inoculum Log 10 4.6", "result": 2.12}, {"measurement": "Log REDUCTION", "setting": "[7]; 5 Hours, inoculum Log 10 4.6", "result": 3.02}, {"measurement": "Log REDUCTION", "setting": "[7]; 24 Hours, inoculum Log 10 3.65", "result": 3.65}, {"measurement": "Log REDUCTION", "setting": "[8]; 1 Hour, inoculum Log 10 5.45", "result": 3.68}, {"measurement": "Log REDUCTION", "setting": "[8]; 5 Hours, inoculum Log 10 5.45", "result": 4.41}, {"measurement": "Log REDUCTION", "setting": "[8]; 24 Hours, inoculum Log 10 5.22", "result": 5.22}]}]}
